Measured values from patent publication US20230019236A1, “PROTEIN TYROSINE PHOSPHATASE INHIBITORS AND METHODS OF USE THEREOF” (Calico Life Sciences LLC, priority 2019, published 2023).

Target: T1, His tagged full-length PTP1B protein (Homo sapiens, UniProt P18031)
T1 construct: made in house
T1 sequence (P18031 with tags, fused parts or gaps): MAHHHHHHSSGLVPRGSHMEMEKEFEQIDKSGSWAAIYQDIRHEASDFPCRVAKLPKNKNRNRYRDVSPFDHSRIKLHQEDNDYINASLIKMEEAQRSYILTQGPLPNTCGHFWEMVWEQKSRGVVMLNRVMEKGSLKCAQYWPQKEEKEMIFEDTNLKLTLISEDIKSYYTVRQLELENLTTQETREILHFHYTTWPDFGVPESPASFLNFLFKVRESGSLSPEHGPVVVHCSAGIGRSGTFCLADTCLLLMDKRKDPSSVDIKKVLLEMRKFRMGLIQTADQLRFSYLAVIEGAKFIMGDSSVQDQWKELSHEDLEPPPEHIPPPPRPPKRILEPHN
Assay: Mobility Shift Assay (MSA) used to determine potency of PTP1B inhibitors
Type: biochemical
Details: Table 2
Procedure: The enzymatic assay used to determine activity is a mobility shift assay using a LabChip EZ Reader by Caliper Life Sciences. The enzymatic reaction was carried out in assay buffer (50 mM HEPES pH 7.5, 1 mM EGTA, 10 mM EDTA, 0.01% Tween® 20, and 2 mM DTT). […] The enzyme (at 0.5 nM) was incubated with compound for 10 minutes at room temperature. […] The % inhibition was then used to calculate the IC50 values.

Row | IC50 [µM] | Compound
1 | 0.001 to 0.01 | O=C1CN(c2c(O)c(Br)c3ccc(-c4ccn(S(=O)(=O)C5CC5)c4)cc3c2F)S(=O)(=O)N1 [Compound 231B, 5-{4-bromo-7-[1-(cyclopropanesulfonyl)-1H-pyrrol-3-yl]-1-fluoro-3-hydroxynaphthalen-2-yl}-1λ^6,2,5-thiadiazolidine-1,1,3-trione]
2 | 0.01 to 0.1 | CC1(CCOc2ccc3cc(O)c(N4CC(=O)NS4(=O)=O)c(F)c3c2)CC1 [Compound 193, 5-{1-fluoro-3-hydroxy-7-[2-(1-methylcyclopropyl)ethoxy]naphthalen-2-yl}-1λ^6,2,5-thiadiazolidine-1,1,3-trione]
3 | 0.001 to 0.01 | CNC(=O)CCCOc1ccc2cc(O)c(N3CC(=O)NS3(=O)=O)c(F)c2c1 [Compound 269, 4-{[8-fluoro-6-hydroxy-7-(1,1,4-trioxo-1λ^6,2,5-thiadiazolidin-2-yl)naphthalen-2-yl]oxy}—N-methylbutanamide]
4 | 0.001 to 0.01 | COC/C=C/c1ccc2cc(O)c(N3CC(=O)NS3(=O)=O)c(F)c2c1 [Compound 245, 5-{1-fluoro-3-hydroxy-7-[(1E)-3-methoxyprop-1-en-1-yl]naphthalen-2-yl}-1λ^6,2,5-thiadiazolidine-1,1,3-trione]
5 | < 0.001 | CC(C)(C#N)CCOc1ccc2cc(O)c(N3CC(=O)NS3(=O)=O)c(F)c2c1 [Compound 120, 4-{[8-fluoro-6-hydroxy-7-(1,1,4-trioxo-1λ^6,2,5-thiadiazolidin-2-yl)naphthalen-2-yl]oxy}-2,2-dimethylbutanenitrile]
6 | > 0.1 | N#CCCCNc1ccc2cc(O)c(N3CC(=O)NS3(=O)=O)c(F)c2c1 [Compound 174, 4-{[8-fluoro-6-hydroxy-7-(1,1,4-trioxo-1λ^6,2,5-thiadiazolidin-2-yl)naphthalen-2-yl]amino}butanenitrile]
7 | 0.01 to 0.1 | CC(C)CCCc1ccc2cc(O)c(N3CC(=O)NS3(=O)=O)c(F)c2c1 [Compound 219, 5-[1-fluoro-3-hydroxy-7-(4-methylpentyl)naphthalen-2-yl]-1λ^6,2,5-thiadiazolidine-1,1,3-trione]
8 | < 0.001 | O=C1CN(c2c(O)cc3ccc(C4=CCN(S(=O)(=O)c5ccccc5)C4)cc3c2F)S(=O)(=O)N1 [Compound 315, 5-{7-[1-(benzenesulfonyl)-2,5-dihydro-1H-pyrrol-3-yl]-1-fluoro-3-hydroxynaphthalen-2-yl}-1λ^6,2,5-thiadiazolidine-1,1,3-trione]
9 | > 0.1 | N#C/C=C/c1ccc2cc(O)c(N3CC(=O)NS3(=O)=O)c(F)c2c1 [Compound 208, (2E)-3-[8-fluoro-6-hydroxy-7-(1,1,4-trioxo-1λ^6,2,5-thiadiazolidin-2-yl)naphthalen-2-yl]prop-2-enenitrile]
10 | 0.001 to 0.01 | O=C1CN(c2c(O)cc3ccc(C4=CCN(S(=O)(=O)CCC(F)(F)F)C4)cc3c2F)S(=O)(=O)N1 [Compound 287, 5-{1-fluoro-3-hydroxy-7-[1-(3,3,3-trifluoropropane-1-sulfonyl)-2,5-dihydro-1H-pyrrol-3-yl]naphthalen-2-yl}-1λ^6,2,5-thiadiazolidine-1,1,3-trione]
11 | > 0.1 | O=C1CN(c2c(O)cc3ccc(C(F)F)cc3c2F)S(=O)(=O)N1 [Compound 167, 5-[7-(difluoromethyl)-1-fluoro-3-hydroxynaphthalen-2-yl]-1λ^6,2,5-thiadiazolidine-1,1,3-trione]
12 | 0.001 to 0.01 | CS(=O)(=O)N1CC(Nc2ccc3cc(O)c(N4CC(=O)NS4(=O)=O)c(F)c3c2)C1 [Compound 128, 5-(1-fluoro-3-hydroxy-7-{[1-(methanesulfonyl)azetidin-3-yl]amino}naphthalen-2-yl)-1λ^6,2,5-thiadiazolidine-1,1,3-trione]
13 | 0.01 to 0.1 | COc1ccc2cc(O)c(N3CC(=O)NS3(=O)=O)c(F)c2c1Cl [Compound 234, 5-(8-chloro-1-fluoro-3-hydroxy-7-methoxynaphthalen-2-yl)-1λ^6,2,5-thiadiazolidine-1,1,3-trione]
14 | 0.001 to 0.01 | O=C1CN(c2c(O)cc3ccc(C4=CCN(S(=O)(=O)C5CC5)CC4)cc3c2F)S(=O)(=O)N1 [Compound 297, 5-{7-[1-(cyclopropanesulfonyl)-1,2,3,6-tetrahydropyridin-4-yl]-1-fluoro-3-hydroxynaphthalen-2-yl}-1λ^6,2,5-thiadiazolidine-1,1,3-trione]
15 | 0.01 to 0.1 | CCNCCOc1ccc2cc(O)c(N3CC(=O)NS3(=O)=O)c(F)c2c1 [Compound 144, 5-{7-[2-(ethylamino)ethoxy]-1-fluoro-3-hydroxynaphthalen-2-yl}-1λ^6,2,5-thiadiazolidine-1,1,3-trione]
16 | 0.01 to 0.1 | Cc1c[nH]c(-c2ccc3cc(O)c(N4CC(=O)NS4(=O)=O)c(F)c3c2)n1 [Compound 225, 5-[1-fluoro-3-hydroxy-7-(4-methyl-1H-imidazol-2-yl)naphthalen-2-yl]-1λ^6,2,5-thiadiazolidine-1,1,3-trione]
17 | 0.01 to 0.1 | O=C1CN(c2c(O)cc3ccc(OC4CN(S(=O)(=O)C5CC5)C4)cc3c2F)S(=O)(=O)N1 [Compound 178, 5-(7-{[1-(cyclopropanesulfonyl)azetidin-3-yl]oxy}-1-fluoro-3-hydroxynaphthalen-2-yl)-1λ^6,2,5-thiadiazolidine-1,1,3-trione]
18 | 0.001 to 0.01 | Nc1ccc(CS(=O)(=O)N2CC=C(c3ccc4cc(O)c(N5CC(=O)NS5(=O)=O)c(F)c4c3)C2)cc1 [Compound 184, 5-(7-{1-[(4-aminophenyl)methanesulfonyl]-2,5-dihydro-1H-pyrrol-3-yl}-1-fluoro-3-hydroxynaphthalen-2-yl)-1λ^6,2,5-thiadiazolidine-1,1,3-trione]
19 | 0.001 to 0.01 | CS(=O)(=O)N1CCC(Oc2ccc3cc(O)c(N4CC(=O)NS4(=O)=O)c(F)c3c2)CC1 [Compound 284, 5-(1-fluoro-3-hydroxy-7-{[1-(methanesulfonyl)piperidin-4-yl]oxy}naphthalen-2-yl)-1λ^6,2,5-thiadiazolidine-1,1,3-trione]
20 | > 0.1 | COc1ccc(-c2ccc3cc(O)c(N4CC(=O)NS4(=O)=O)c(F)c3c2)s1 [Compound 227, 5-[1-fluoro-3-hydroxy-7-(5-methoxythiophen-2-yl)naphthalen-2-yl]-1λ^6,2,5-thiadiazolidine-1,1,3-trione]
21 | 0.001 to 0.01 | O=C1CN(c2c(O)cc3ccc(C4CN(S(=O)(=O)C5CC5)C4)cc3c2F)S(=O)(=O)N1 [Compound 206, 5-{7-[1-(cyclopropanesulfonyl)azetidin-3-yl]-1-fluoro-3-hydroxynaphthalen-2-yl}-1λ^6,2,5-thiadiazolidine-1,1,3-trione]
22 | 0.001 to 0.01 | O=C1CN(c2c(O)cc3ccc(CC4CN(S(=O)(=O)C5CC5)C4)cc3c2F)S(=O)(=O)N1 [Compound 256, 5-(7-{[1-(cyclopropanesulfonyl)azetidin-3-yl]methyl}-1-fluoro-3-hydroxynaphthalen-2-yl)-1λ^6,2,5-thiadiazolidine-1,1,3-trione]
23 | 0.001 to 0.01 | O=C1CN(c2c(O)cc3ccc(-c4cnn(S(=O)(=O)C5CC5)c4)cc3c2F)S(=O)(=O)N1 [Compound 303, 5-{7-[1-(cyclopropanesulfonyl)-1H-pyrazol-4-yl]-1-fluoro-3-hydroxynaphthalen-2-yl}-1λ^6,2,5-thiadiazolidine-1,1,3-trione]
24 | 0.01 to 0.1 | CS(=O)(=O)N1CC[C@@H](Nc2ccc3cc(O)c(N4CC(=O)NS4(=O)=O)c(F)c3c2)C1 [Compound 304, 5-(1-fluoro-3-hydroxy-7-{[(3R)-1-(methanesulfonyl)pyrrolidin-3-yl]amino}naphthalen-2-yl)-1λ^6,2,5-thiadiazolidine-1,1,3-trione]
25 | > 0.1 | O=C1CN(c2c(O)cc3ccc(NCCN4CCC4)cc3c2F)S(=O)(=O)N1 [Compound 177, 5-(7-{[2-(azetidin-1-yl)ethyl]amino}-1-fluoro-3-hydroxynaphthalen-2-yl)-1λ^6,2,5-thiadiazolidine-1,1,3-trione]
26 | 0.001 to 0.01 | O=C1CN(c2c(O)cc3ccc(OCCN4CCC4)cc3c2F)S(=O)(=O)N1 [Compound 105, 5-{7-[2-(azetidin-1-yl)ethoxy]-1-fluoro-3-hydroxynaphthalen-2-yl}-1λ^6,2,5-thiadiazolidine-1,1,3-trione]
27 | > 0.1 | COc1ccc2c(Cl)c(O)c(N3CC(=O)NS3(=O)=O)c(F)c2c1 [Compound 238, 5-(4-chloro-1-fluoro-3-hydroxy-7-methoxynaphthalen-2-yl)-1λ^6,2,5-thiadiazolidine-1,1,3-trione]
28 | 0.001 to 0.01 | N#CC1(CNc2ccc3cc(O)c(N4CC(=O)NS4(=O)=O)c(F)c3c2)CC1 [Compound 181, 1-({[8-fluoro-6-hydroxy-7-(1,1,4-trioxo-1λ^6,2,5-thiadiazolidin-2-yl)naphthalen-2-yl]amino}methyl)cyclopropane-1-carbonitrile]
29 | > 0.1 | O=C1CN(c2c(O)cc3ccc(OCC4CCOCC4)cc3c2F)S(=O)(=O)N1 [Compound 273, 5-{1-fluoro-3-hydroxy-7-[(oxan-4-yl)methoxy]naphthalen-2-yl}-1λ^6,2,5-thiadiazolidine-1,1,3-trione]

Row | Compound | IC50 [µM]
30 | CC(C)CCOc1ccc2cc(O)c(N3CC(=O)NS3(=O)=O)c(F)c2c1 [Compound 204, 5-[1-fluoro-3-hydroxy-7-(3-methylbutoxy)naphthalen-2-yl]-1λ^6,2,5-thiadiazolidine-1,1,3-trione] | < 0.001
31 | CC(C)(C)OCCOc1ccc2cc(O)c(N3CC(=O)NS3(=O)=O)c(F)c2c1 [Compound 217, 5-[7-(2-tert-butoxyethoxy)-1-fluoro-3-hydroxynaphthalen-2-yl]-1λ^6,2,5-thiadiazolidine-1,1,3-trione] | 0.001 to 0.01
